In patent US8088801B2, “Aryloazol-2-yl cyanoethylamino compounds, method of making and method of using thereof” (Merial Limited, priority 2007, dated 2012) one finds inhibition data, which are given here for 33 compounds.

The test system of one assay is Haemonchus contortus. Nature of the assay: Method A: screening against Haemonchus contortus, L1 larvae in microtitre plate. The note with it: 96 h, test concentration 0.0025 ppm, 4 days assessment, read-out: motility inhibition. The text has this:
Method A: Screening Method to Test Activity of Compounds Against Haemonchus contortus.
For the compound `CC(C#N)(Cn1nc2c(Br)cc(Cl)c(Br)c2n1)NC(=O)c1ccc(OC(F)(F)F)cc1` (stereo not drawn) [Compound 1.083, N-[2-(5-Chloro-4,7-dibromo-2H-benzotriazol-2-yl)-1-cyano-1-methylethyl]-4-trifluoromethoxybenzamide], the inhibition at 0.0025 ppm is not below 90%.

Regarding `CC(C#N)(Cn1nc2c(Cl)c(Br)c(Cl)c(Br)c2n1)NC(=O)c1ccc(OC(F)(F)F)cc1` (stereo not drawn) [Compound 1.088, N-[1-Cyano-2-(4,6-dibromo-5,7-dichloro-2H-benzotriazol-2-yl)-1-methylethyl]-4-trifluoromethoxybenzamide], the inhibition at 0.0025 ppm is not below 90%. In the case of `COc1c2ccc(Br)cc2nn1CC(C)(C#N)NC(=O)c1ccc(OC(F)(F)F)cc1` (stereo not drawn) [Compound 2.023, N-[2-(6-Bromo-3-methoxy-2H-indazol-2-yl)-1-cyano-1-methylethyl]-4-trifluoromethoxybenzamide], the inhibition at 0.0025 ppm was not below 90%. For the compound `COc1c2ccc(C(F)(F)F)cc2nn1CC(C)(C#N)NC(=O)c1ccc(OC(F)(F)F)cc1` (stereo not drawn) [Compound 2.025, N-[1-Cyano-2-(3-methoxy-6-trifluoromethyl-2H-indazol-2-yl)-1-methylethyl]-4-trifluoromethoxybenzamide], the inhibition at 0.0025 ppm is not below 90%. Same read-out and setting: the figure for `CC(C#N)(Cn1nc2cc(Cl)ccc2c1Br)NC(=O)c1ccc(OC(F)(F)F)cc1` (stereo not drawn) [Compound 2.042, N-[2-(3-Bromo-6-chloro-2H-indazol-2-yl)-1-cyano-1-methylethyl]-4-trifluoromethoxybenzamide] is not below 90%. On the same count and under the same terms, next, `CC(C#N)(Cn1nc2cc(Cl)ccc2c1Cl)NC(=O)c1ccc(OC(F)(F)F)cc1` (stereo not drawn) [Compound 2.044, N-[1-Cyano-2-(3,6-dichloro-2H-indazol-2-yl)-1-methylethyl]-4-trifluoromethoxybenzamide]: not below 90%.

The assay is the same for the next values; noted with them: 96 h, test concentration 0.01 ppm, 4 days assessment, read-out: motility inhibition.
On to `Cc1cc(Cl)c(C)c2nn(CC(C)(C#N)NC(=O)c3ccc(OC(F)(F)F)cc3)nc12` (stereo not drawn) [Compound 1.092, N-[2-(5-Chloro-4,7-dimethyl-2H-benzotriazol-2-yl)-1-cyano-1-methylethyl]-4-trifluoromethoxybenzamide], for which the inhibition at 0.01 ppm was not below 90%. The same measure, in the same setting: next, `CCOc1c2cc(Cl)ccc2nn1CC(C)(C#N)NC(=O)c1ccc(OC(F)(F)F)cc1` (stereo not drawn) [Compound 2.014, N-[2-(5-Chloro-3-ethoxy-2H-indazol-2-yl)-1-cyano-1-methylethyl]-4-trifluoromethoxybenzamide]: not below 90%. On the same count and under the same terms, the figure for `CCOc1c2ccc(Cl)cc2nn1CC(C)(C#N)NC(=O)c1ccc(OC(F)(F)F)cc1` (stereo not drawn) [Compound 2.027, N-[2-(6-Chloro-3-ethoxy-2H-indazol-2-yl)-1-cyano-1-methylethyl]-4-trifluoromethoxybenzamide] is not below 90%; for `CC(C#N)(Cn1nc2c(Cl)c(Cl)ccc2c1Cl)NC(=O)c1ccc(OC(F)(F)F)cc1` (stereo not drawn) [Compound 2.039, N-[1-Cyano-1-methyl-2-(3,6,7-trichloro-2H-indazol-2-yl)ethyl]-4-trifluoromethoxybenzamide] it is not below 90%.

Staying with this assay, now noted: 96 h, test concentration 0.04 ppm, 4 days assessment, read-out: motility inhibition.
With `CC(C#N)(Cn1nc2ccc(Cl)cc2n1)NC(=O)c1ccc(Oc2ccccc2)cc1` (stereo not drawn) [Compound 1.032, N-[2-(5-Chloro-2H-benzotriazol-2-yl)-1-cyano-1-methylethyl]-4-phenoxybenzamide], the inhibition at 0.04 ppm was not below 90%.

As to `CC(C#N)(Cn1nc2ccc(Cl)c(Br)c2n1)NC(=O)c1ccc(OC(F)(F)F)cc1` (stereo not drawn) [Compound 1.057, N-[2-(4-Bromo-5-chloro-2H-benzotriazol-2-yl)-1-cyano-1-methylethyl]-4-trifluoromethoxybenzamide], the inhibition at 0.04 ppm was not below 90%. On the same count and under the same terms, the figure for `CC(C#N)(Cn1nc2cc(Cl)cc(Br)c2n1)NC(=O)c1ccc(OC(F)(F)F)cc1` (stereo not drawn) [Compound 1.060, N-[2-(4-Bromo-6-chloro-2H-benzotriazol-2-yl)-1-cyano-1-methylethyl]-4-trifluoromethoxybenzamide] is not below 90%; for `CC(C#N)(Cn1nc2cc(Cl)cc(C#N)c2n1)NC(=O)c1ccc(OC(F)(F)F)cc1` (stereo not drawn) [Compound 1.067, N-[2-(6-Chloro-4-cyano-2H-benzotriazol-2-yl)-1-cyano-1-methylethyl]-4-trifluoromethoxybenzamide] it is not below 90%; for `C=Cc1cc(Cl)cc2nn(CC(C)(C#N)NC(=O)c3ccc(OC(F)(F)F)cc3)nc12` (stereo not drawn) [Compound 1.075, N-[2-(6-Chloro-4-vinyl-2H-benzotriazol-2-yl)-1-cyano-1-methylethyl]-4-trifluoromethoxybenzamide] it is not below 90%. Consider `CC(C#N)(Cn1nc2cc(Cl)cc(C(F)CF)c2n1)NC(=O)c1ccc(OC(F)(F)F)cc1` (stereo not drawn) [Compound 1.078, N-{2-[6-Chloro-4-(1,2-difluoroethyl)-2H-benzotriazol-2-yl]-1-cyano-1-methyl-ethyl}-4-trifluoromethoxybenzamide], for which the inhibition at 0.04 ppm was not below 90%. Still for that read-out and setting: next, `Cc1cc(Cl)cc2cn(CC(C)(C#N)NC(=O)c3ccc(OC(F)(F)F)cc3)nc12` (stereo not drawn) [Compound 2.006, N-[2-(5-Chloro-7-methyl-2H-indazol-2-yl)-1-cyano-1-methylethyl]-4-trifluoromethoxybenzamide]: not below 90%. `COc1c2c(Cl)cc(Cl)cc2nn1CC(C)(C#N)NC(=O)c1ccc(OC(F)(F)F)cc1` (stereo not drawn) [Compound 2.021, N-[1-Cyano-2-(4,6-dichloro-3-methoxy-2H-indazol-2-yl)-1-methylethyl]-4-trifluoromethoxybenzamide]: the inhibition at 0.04 ppm was not below 90%.

Staying with this assay, now noted: 96 h, test concentration 0.15 ppm, 4 days assessment, read-out: motility inhibition.
`CC(C#N)(Cn1nc2ccc(Cl)cc2n1)NC(=O)c1ccc(C(F)(F)F)cc1` (stereo not drawn) [Compound 1.002, N-[2-(5-Chloro-2H-benzotriazol-2-yl)-1-cyano-1-methylethyl]-4-trifluoromethylbenzamide]: the inhibition at 0.15 ppm was not below 90%. On the same count and under the same terms, the figure for `Cc1ccc2nn(CC(C)(C#N)NC(=O)c3ccc(OC(F)(F)F)cc3)nc2c1` (stereo not drawn) [Compound 1.006, N-[1-Cyano-1-methyl-2-(5-methyl-2H-benzotriazol-2-yl)ethyl]-4-trifluoromethoxybenzamide] is not below 90%; for `CC(C#N)(Cn1nc2cc(Cl)c(Cl)cc2n1)NC(=O)c1ccc(OC(F)(F)F)cc1` (stereo not drawn) [Compound 1.010, N-[1-Cyano-2-(5,6-dichloro-2H-benzotriazol-2-yl)-1-methylethyl]-4-trifluoromethoxybenzamide] it is not below 90%; for `CC(C#N)(Cn1nc2cc(C(F)(F)F)cc(C(F)(F)F)c2n1)NC(=O)c1ccc(OC(F)(F)F)cc1` (stereo not drawn) [Compound 1.018, N-[2-(4,6-Bis(trifluoromethyl)-2H-benzotriazol-2-yl)-1-cyano-1-methylethyl]-4-trifluoromethoxybenzamide] it is not below 90%.

As to `CC(C#N)(Cn1nc2cc(Cl)cc(Cl)c2n1)NC(=O)c1ccc(S(=O)(=O)C(F)(F)F)cc1` (stereo not drawn) [Compound 1.025, N-[1-Cyano-2-(4,6-dichloro-2H-benzotriazol-2-yl)-1-methylethyl]-4-trifluoromethylsulfonylbenzamide], the inhibition at 0.15 ppm is not below 90%. Same read-out and setting: the figure for `CC(C#N)(Cn1nc2ccc(Cl)cc2n1)NC(=O)c1ccc(S(=O)(=O)C(F)(F)F)cc1` (stereo not drawn) [Compound 1.031, N-[2-(5-Chloro-2H-benzotriazol-2-yl)-1-cyano-1-methylethyl]-4-trifluoromethylsulfonylbenzamide] is not below 90%. As to `CC(C#N)(Cn1nc2cccc(Cl)c2n1)NC(=O)c1ccc(Oc2ccccc2)cc1` (stereo not drawn) [Compound 1.045, N-[2-(4-Chloro-2H-benzotriazol-2-yl)-1-cyano-1-methylethyl]-4-phenoxybenzamide], the inhibition at 0.15 ppm was not below 90%. As to `CC(C#N)(Cn1nc2cc(C(F)(F)F)cc(C#N)c2n1)NC(=O)c1ccc(OC(F)(F)F)cc1` (stereo not drawn) [Compound 1.054, N-[1-Cyano-2-(4-cyano-6-trifluoromethyl-2H-benzotriazol-2-yl)-1-methylethyl]-4-trifluoromethoxybenzamide], the inhibition at 0.15 ppm is not below 90%. In the case of `CSCC(C#N)(Cn1nc2ccc(Cl)cc2n1)NC(=O)c1ccc(OC(F)(F)F)cc1` (stereo not drawn) [Compound 1.061, N-[2-(5-Chloro-2H-benzotriazol-2-yl)-1-cyano-1-(methylthiomethyl)ethyl]-4-trifluoromethoxybenzamide], the inhibition at 0.15 ppm is not below 90%. As to `CC(C#N)(Cn1nc2cc(Cl)cc(C=O)c2n1)NC(=O)c1ccc(OC(F)(F)F)cc1` (stereo not drawn) [Compound 1.079, N-[2-(6-Chloro-4-formyl-2H-benzotriazol-2-yl)-1-cyano-1-methylethyl]-4-trifluoromethoxybenzamide], the inhibition at 0.15 ppm is not below 90%. Regarding `CC(C#N)(Cn1nc2cc(Cl)cc(CO)c2n1)NC(=O)c1ccc(OC(F)(F)F)cc1` (stereo not drawn) [Compound 1.081, N-[2-(6-Chloro-4-hydroxymethyl-2H-benzotriazol-2-yl)-1-cyano-1-methylethyl]-4-trifluoromethoxybenzamide], the inhibition at 0.15 ppm is not below 90%. The same measure, in the same setting: next, `COC(=O)c1cc(Cl)cc2nn(CC(C)(C#N)NC(=O)c3ccc(OC(F)(F)F)cc3)nc12` (stereo not drawn) [Compound 1.084, Methyl 6-chloro-2-[2-cyano-2-({[4-(trifluoromethoxy)phenyl]carbonyl}-amino)propyl]-2H-benzotriazole-4-carboxylate]: not below 90%; `CC(C#N)(Cn1cc2cc(Cl)cc(Cl)c2n1)NC(=O)c1ccc(Oc2ccccc2)cc1` (stereo not drawn) [Compound 2.004, N-[1-Cyano-2-(5,7-dichloro-2H-indazol-2-yl)-1-methylethyl]-4-phenoxybenzamide]: not below 90%. As for `Cc1c2cc(Cl)cc(Cl)c2nn1CC(C)(C#N)NC(=O)c1ccc(OC(F)(F)F)cc1` (stereo not drawn) [Compound 2.010, N-[1-Cyano-2-(5,7-dichloro-3-methyl-2H-indazol-2-yl)-1-methylethyl]-4-trifluoromethoxybenzamide], the inhibition at 0.15 ppm was not below 90%. On the same count and under the same terms, the figure for `COc1c2ccc([N+](=O)[O-])cc2nn1CC(C)(C#N)NC(=O)c1ccc(OC(F)(F)F)cc1` (stereo not drawn) [Compound 2.033, N-[1-Cyano-2-(3-methoxy-6-nitro-2H-indazol-2-yl)-1-methylethyl]-4-trifluoromethoxybenzamide] is not below 90%.

One may read the inhibition as the share of the control response that was lost under treatment.
